Data taken from patent US5550138A, “Condensed thiadiazole derivative, method of its production, and use thereof” (Takeda Chemical Industries, Ltd., priority 1992, dated 1996).
pIC50: −log10 of the molar value.

Key:
[1] = target: endothelin receptor; experiment: Inhibition of endothelin-1 binding to endothelin receptor (125I-endothelin binding test, rabbit ventricular microsomal fraction); conditions: 125I-endothelin-1 6×10^-11 M, 37° C., 90 minutes
Procedure: Inhibition of endothelin-1 binding to endothelin receptor
(a) Preparation of rabbit ventricular microsomal fraction
Rabbit ventricular microsomal fraction was prepared by the method described in Methods in Enzymology, 109, 513 with a slight modification. The cardiac ventricular muscle excised from a 2 to 2.5 kg rabbit was minced in solution A (20 mM NaHCO3, 0.1 mM phenylmethylsulfonyl fluoride (PMSF)) and then homogenized using a Polytron PT-20, and centrifuged at 1500×g for 15 minutes. The supernatant was centrifuged at 45000×g for 15 minutes. The resulting sediment was suspended in solution B (50 mM Tris-HCl pH 7.4, 0.1 mM PMSF) and then re-centrifuged at 45000×g for 15 minutes. The sediment was again suspended in solution B and then centrifuged at 45000×g for 15 minutes. The sediment was re-suspended in solution B, and the suspension was frozen with liquid nitrogen and stored at -80° C. This series of operations was performed at 4° C. Protein contents was determined by Lowry's method.
(b) ^125 I-endothelin binding test
To 250 μl of a reaction solution (50 mM Tris-HCl, pH 7.4, 0.2% BSA (bovine serum albumin)), supplemented with 6×10^-11 M ^125 I-endothelin-1 (Amersham Japan) 50 μl of the ventricular microsomal fraction (20 μg) and a sample were added, followed by incubation at 37° C. for 90 minutes. The reaction mixture was then filtered through a GF/B glass filter (Millipore Japan), and the filter was washed with a 40-fold (12 ml) of the reaction solution. The radioactivity of the ^125 I-endothelin on the glass filter was determined using a gamma-ray counter. Nonspecific binding was defined as the amount of ^125 I-endothelin in the presence of 4×10^-7 M unlabelled endothelin-1 and was less than 8% of total binding. The specific binding was calculated as total binding minus nonspecific binding. Non-specific binding accounted for not higher than 8% of the total binding. The inhibitory rate of the compound is expressed as the concentration (IC50 M) required to cause a 50% reduction in the specific binding.

[2] = test system: swine coronary artery; experiment: Inhibitory action on endothelin-1-induced constriction in swine coronary artery; type: cell-based; conditions: Sus scrofa, relaxation of maximum constriction induced by endothelin-1 (3×10^-9 M); for inhibition at 100 µM: compound 1 × 10^-4 M; for inhibition at 10 µM: compound 1 × 10^-5 M; for inhibition at 30 µM: compound 3 × 10^-5 M
Procedure: Inhibitory action on endothelin-1-induced constriction in swine coronary artery
After fat tissue removal, the swine left coronary arterial anterior descending branch (LAD) was isolated and vascular rings were prepared. These arterial rings kept at 37° C., were suspended in a 20 ml organ chamber filled with Krebs solution being aerated with 95% O2 /5% CO2 gas. Two grams of the tension was applied. After equilibration for 1 hr, 60 mMKCl was applied to condition the coronary rings. The test compound was tested for inhibition of the constriction induced by endothelin-1 (3×10^-9 M) by adding the test compound when the maximum of endothelin-1 induced constriction was reached. Activity is expressed as percent relaxation of the maximum constriction induced by endothelin-1. The developed tension of rings was reached isometrically.

[3] = test system: Cathepsin B; experiment: Determination of cathepsin B inhibitory activity; type: biochemical; conditions: substrate Z-Phe-Arg-NH-Mec; pH 5.5; 37° C., 20 minutes
Procedure: Determination of cathepsin B inhibitory activity
Cathepsin B (produced by Sigma) was diluted with 100 mM sodium acetate buffer (pH 5.5) to a concentration of 30 μg/ml. To 1 μl of this enzyme dilution, 46 μl of diluent, 2 μl of 0.1M DTT and 25 μl of activator/buffer (340 mM sodium acetate, 60 mM acetic acid, 4 mM EDTA disodium salt, pH 5.5) were added. To this mixture, a 1 μl sample, diluted to 10^-3 M with dimethylsulfoxide (DMSO), and 25 μl of 20 μM Z-Phe-Arg-NH-Mec (enzyme substrate solution) were added. After the mixture was incubated at 37° C. for 20 minutes, 100 μl of a stop solution (100 mM sodium monochloroacetate, 30 mM sodium acetate, pH 4.3) was added. The reaction was carried out on a 96-well fluoropiate (produced by Labo-Systems).
After the reaction was stopped, the absorbance of free aminomethylcoumarin was determined by excitation at 365 nm and emission at 450 nm, using Fluorescence Concentration Analyzer (produced by Baxter). One μl of sample-free DMSO was added for control, and the absorbance from reaction of this control was defined as 100% activity. For samples of under 10% residual activity, further dilutions were assayed for residual activity as described above to obtain the IC50 value.

[4] = test system: bone resorption; experiment: Inhibition of bone resorption (45Ca release from fetal rat forearm bones); type: cell-based, rat (Sprague-Dawley); conditions: 48 h, 10 μg/ml compound, two days of culture, read-out: Inhibition of Bone Resorption [45Ca released (percent ratio to control)]
Procedure: Inhibition of bone resorption
The inhibitory effect of compound on bone resorption was measured by the method of Rais 3 [Journal of Clinical Investigation, 44, 103-116 (1965)]. Specifically, one Sprague-Dawley rat, at 19 days of gestation, was given 50 μCi of ^45 Ca (calcium isotope, in CaCl2 solution) by subcutaneous injection. On the following day, fetal rats were aseptically taken out, both forearm bones (radius and ulna) were cut out from the body of each fetus, and connective tissue and cartilages were removed to maximum possible extent, to yield prepare bone culture samples. Each bone fragment was incubated at 37° C. for 24 hours in 0.6 ml of BGJb medium (Fitton-Jackson modification, produced by GIBCO Laboratories, United States) containing 2 mg/ml bovine serum albumin, after which it was cultured in the same medium as above but containing a 10 μg/ml compound for two more days. ^45 Ca radioactivity in the medium and ^45 Ca radioactivity in the bone were then measured, and the percent ratio of ^45 Ca released from the bone to the medium was calculated using the following equation: [formula]
For control, bone fractions from fetuses of the same litter were cultured for two days in the absence of the test compound. The mean ± standard deviation for the values from five bone fragments in each group were calculated, and their percent ratios to the control were calculated.

[5] = test system: mice; experiment: Toxicity in mice (deaths); type: in vivo; conditions: 300 mg/kg dose
Procedure: Although the daily dose varies depending on the condition and weight of the patient, kind of the compound, route of administration and other factors, it is administered parenterally, specifically subcutaneously, intravenously, intramuscularly or rectally at about 0.05 to 100 mg/kg/day, preferably 0.5 to 50 mg/kg/day as an endothelin receptor antagonist, about 0.1 to 100 mg/kg/day, preferably 1 to 50 mg/kg/day as a cathepsin B inhibitor and about 1 to 200 mg/kg/day, preferably 5 to 100 mg/kg/day as a bone resorption suppressor, respectively. For use as an oral agent, it is desirable to administer it at about 0.1 to 500 mg/kg/day, preferably 0.5 to 200 mg/kg/day as an endothelin receptor antagonist, about 1 to 500 mg/kg/day, preferably 10 to 300 mg/kg/day as a cathepsin B inhibitor and about 5 to 1000 mg/kg/day, preferably 10 to 300 mg/kg/day as a bone resorption suppressor, respectively.

pIC50 [1] | SMILES | activity at 10 µg/mL [4] | other results
5.52 | CCc1sc2nc(=NS(=O)(=O)c3ccc(C)cc3)sn2c1-c1ccc2c(c1)CCCC2 [Example 20, 5-ethyl-2-(4-methylphenyl)sulfonylimino-6-(5,6,7,8-tetrahydro-2-naphthyl)-2H-thiazolo[3,2-b][1,2,4]thiadiazole] | – | inhibition at 100 µM [2]: 68%; inhibition at 10 µM [2]: 11%
5.60 | CCCc1sc2nc(=NS(=O)(=O)c3ccc(C)cc3)sn2c1-c1ccc2c(c1)CCCC2 [Example 23] | – | –
5.14 | Cc1ccccc1S(=O)(=O)N=c1nc2sc(C)c(-c3ccc(C4CCCCC4)cc3)n2s1 [Example 73] | – | –
5.12 | CCS(=O)(=O)N=c1nc2sc(C)c(-c3ccc(C4CCCCC4)cc3)n2s1 [Example 82] | – | –
5.68 | CCc1sc2nc(=NS(=O)(=O)c3ccc(C)cc3)sn2c1-c1ccc(C2CCCCC2)cc1 [Example 99] | – | –
5.21 | CCCS(=O)(=O)N=c1nc2sc(C)c(-c3ccc(C4CCCCC4)cc3)n2s1 [Example 111] | 75% | inhibition at 10 µM [2]: 40%; inhibition at 30 µM [2]: 78%
5.28 | CCCCCCCCS(=O)(=O)N=c1nc2sc(C)c(-c3ccc(C4CCCCC4)cc3)n2s1 [Example 112] | – | inhibition at 10 µM [2]: 35%; inhibition at 30 µM [2]: 83%
5.42 | CCc1sc2nc(=NS(=O)(=O)c3ccc(F)cc3)sn2c1-c1ccc(C2CCCCC2)cc1 [Example 114] | – | inhibition at 10 µM [2]: 44%; inhibition at 30 µM [2]: 75%

The next lines start with the compound.

SMILES | pIC50 [1] | activity at 10 µg/mL [4] | other results
Cc1ccc(S(=O)(=O)N=c2nc3cc4c(cn3s2)CCCC4)cc1 [Example 12] | 5.19 | – | inhibition at 100 µM [2]: 62%; inhibition at 10 µM [2]: 14%
Cc1ccccc1S(=O)(=O)N=c1nc2cc3c(cn2s1)CCCC3 [Example 13] | 5.23 | – | inhibition at 100 µM [2]: 78%; inhibition at 10 µM [2]: 56%
O=S(=O)(N=c1nc2cc3c(cn2s1)CCCC3)c1ccccc1 [Example 14] | 5.06 | – | –
Cc1ccc(S(=O)(=O)N=c2nc3sc(C(C)C)c(-c4ccc5c(c4)CCCC5)n3s2)cc1 [Example 24] | 5.60 | – | inhibition at 100 µM [2]: 99%; inhibition at 10 µM [2]: 37%
Cc1ccc(S(=O)(=O)N=c2nc3sc(CC4CCCCC4)c(-c4ccc5c(c4)CCCC5)n3s2)cc1 [Example 25] | – | 72% | pIC50 [3]: 5.92
CCOC(=O)Cc1sc2nc(=NS(=O)(=O)c3ccc(C)cc3)sn2c1-c1ccc2c(c1)CCCC2 [Example 26] | 5.40 | – | –
CCNC(=O)Cc1sc2nc(=NS(=O)(=O)c3ccc(C)cc3)sn2c1-c1ccc2c(c1)CCCC2 [Example 31] | – | – | pIC50 [3]: 5.54
Cc1ccc(NC(=O)Cc2sc3nc(=NS(=O)(=O)c4ccc(C)cc4)sn3c2-c2ccc3c(c2)CCCC3)cc1 [Example 34] | – | 75% | pIC50 [3]: 5.03
CCc1sc2nc(=NS(=O)(=O)c3ccc(C)cc3)sn2c1CC(=O)NCC1CCCCC1 [Example 65] | – | 74% | –
Cc1sc2nc(=NS(=O)(=O)Cc3ccccc3)sn2c1-c1ccc(C2CCCCC2)cc1 [Example 83] | 5.22 | – | deaths [5]: no deaths occurred
CCNC(=O)CCc1sc2nc(=NS(=O)(=O)c3ccc(C)cc3)sn2c1-c1ccc2c(c1)CCCC2 [Example 94] | – | 76% | –
CCOC(=O)CCC(NC(=O)CCc1sc2nc(=NS(=O)(=O)c3ccc(C)cc3)sn2c1-c1ccc2c(c1)CCCC2)C(=O)OCC (stereo not shown) [Example 96] | – | 81% | pIC50 [3]: 5.72
CCOC(=O)CCCc1sc2nc(=NS(=O)(=O)c3ccc(C)cc3)sn2c1-c1ccc(C2CCCCC2)cc1 [Example 98] | – | 87% | pIC50 [3]: 5.46
CCCCOc1ccc(-c2c(CC)sc3nc(=NS(=O)(=O)c4ccc(C)cc4)sn23)cc1 [Example 104] | 5.57 | – | –
CCc1sc2nc(=NS(=O)(=O)c3ccc(C)cc3)sn2c1-c1cn(C)c2ccccc12 [Example 106] | 5.38 | – | –
Cc1sc2nc(=NS(=O)(=O)c3cccnc3)sn2c1-c1ccc(C2CCCCC2)cc1 [Example 108] | – | 85% | pIC50 [3]: 5.96
CCc1sc2nc(=NS(=O)(=O)CC(C)(C)CO)sn2c1-c1ccc(C2CCCCC2)cc1 [Example 115] | – | 85% | –
